Measurements taken from patent US9695155B2, “Herbicidal substituted pyrimidinyloxy benzene compounds” (E. I. DU PONT DE NEMOURS AND COMPANY, priority 2013, dated 2017).

Columns and labels:
[1] = tested on: barnyardgrass; assay: Test A postemergence; assay type: in vivo, Echinochloa crus-galli; conditions: for Barnyardgrass plant response rating: 125 g ai/ha
Outline: (§1)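 Greenhouse pot test, loam/sand soil. Formulation: non-phytotoxic solvent mix plus surfactant. Pre: directed spray onto soil after sowing. Post: plants at 1–2 leaf, 2–10 cm. Rated visually vs untreated controls at ~10 d, 0 (no effect) to 100 (complete control).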

[2] = tested on: corn; assay: Test A postemergence; assay type: in vivo, Zea mays; conditions: for Corn plant response rating: 125 g ai/ha
Outline: as §1

[3] = tested on: rice; assay: Test B flooded paddy test; assay type: in vivo, Oryza sativa; conditions: Flood, 250 g ai/ha; 0 to 100 scale where 0 is no effect and 100 is complete control
Outline: (§2)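 2-leaf stage plants; pots flooded to 3 cm, compound added to paddy water, depth maintained. Greenhouse 13–15 d. Visual rating vs untreated controls, 0 (no effect) to 100 (complete control); dash = no result.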

[4] = tested on: Heteranthera limosa; assay: Test B flooded paddy test; assay type: in vivo; conditions: Flood, 250 g ai/ha; 0 to 100 scale where 0 is no effect and 100 is complete control
Outline: as §2

[5] = tested on: barnyardgrass; assay: Test B flooded paddy test; assay type: in vivo, Echinochloa crus-galli; conditions: Flood, 250 g ai/ha; 0 to 100 scale where 0 is no effect and 100 is complete control
Outline: as §2

[6] = tested on: Italian ryegrass; assay: Test C postemergence; assay type: in vivo, Lolium multiflorum; conditions: for Plant response rating (0 to 100), Ryegrass, Italian: 16 g ai/ha, 0 is no effect, 100 is complete control; for Ryegrass, Italian plant response rating: 31 g ai/ha; for Ryegrass, Italian plant response rating / Plant response rating, Ryegrass, Italian: scale 0 to 100 (0 no effect, 100 complete control)
Outline: (§3)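 Visual injury score versus untreated controls, 0 = no effect, 100 = complete control, taken 13 to 15 days after treatment in the greenhouse. Pre-emergence pots held loam/sand; post-emergence plants grew in sphagnum peat/vermiculite mix and were sprayed at the 1- to 4-leaf stage.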

[7] = tested on: galium; assay: Test C postemergence; assay type: in vivo, Galium aparine; conditions: for Plant response rating (0 to 100), Galium: 16 g ai/ha, 0 is no effect, 100 is complete control; for Galium plant response rating: 31 g ai/ha; for Galium plant response rating / Plant response rating, Galium: scale 0 to 100 (0 no effect, 100 complete control)
Outline: as §3

[8] = tested on: corn; assay: Test C postemergence; assay type: in vivo, Zea mays; conditions: for Plant response rating (0 to 100), Corn: 16 g ai/ha, 0 is no effect, 100 is complete control; for Corn plant response rating: 31 g ai/ha; for Corn plant response rating / Plant response rating, Corn: scale 0 to 100 (0 no effect, 100 complete control)
Outline: as §3

[9] = tested on: lambsquarters; assay: Test C postemergence; assay type: in vivo, Chenopodium album; conditions: for Plant response rating (0 to 100), Lambsquarters: 16 g ai/ha, 0 is no effect, 100 is complete control; for Lambsquarters plant response rating: 31 g ai/ha; for Lambsquarters plant response rating / Plant response rating, Lambsquarters: scale 0 to 100 (0 no effect, 100 complete control)
Outline: as §3

[10] = tested on: pigweed; assay: Test C postemergence; assay type: in vivo, Amaranthus retroflexus; conditions: for Plant response rating (0 to 100), Pigweed: 16 g ai/ha, 0 is no effect, 100 is complete control; for Pigweed plant response rating: 31 g ai/ha; for Pigweed plant response rating / Plant response rating, Pigweed: scale 0 to 100 (0 no effect, 100 complete control)
Outline: as §3

[11] = tested on: waterhemp; assay: Test C postemergence; assay type: in vivo, Amaranthus rudis; conditions: for Plant response rating (0 to 100), Waterhemp: 16 g ai/ha, 0 is no effect, 100 is complete control; for Waterhemp plant response rating: 31 g ai/ha; for Waterhemp plant response rating / Plant response rating, Waterhemp: scale 0 to 100 (0 no effect, 100 complete control)
Outline: as §3

[12] = 1000 g ai/ha, 0 to 100 scale, 0 no effect, 100 complete control
[13] = postemergence, visual rating, 13 to 15 days
[14] = 125 g ai/ha, postemergence, visual rating
[15] = Postemergence, 62 g ai/ha, 13 to 15 days
[16] = 0 to 100 scale where 0 is no effect and 100 is complete control
[17] = 500 g ai/ha, 0 to 100 scale where 0 is no effect and 100 is complete control

Row | Compound | Plant response rating, Rice [3] | Plant response rating, Ducksalad [4] | Plant response rating, Barnyardgrass [5] | Plant response rating (0 to 100), Ryegrass, Italian ([6]; postemergence) | Ryegrass, Italian plant response rating [6, 13] | Plant response rating, Ryegrass, Italian [6, 14] | Plant response rating, Ryegrass, Italian [6, 15] | Plant response rating (0 to 100), Galium ([7]; postemergence) | Galium plant response rating [7, 13] | Plant response rating, Galium [7, 14] | Plant response rating, Galium [7, 15] | Plant response rating (0 to 100), Corn ([8]; postemergence) | Corn plant response rating [8, 13] | Plant response rating, Corn [8, 14] | Plant response rating, Corn [8, 15] | Plant response rating (0 to 100), Lambsquarters ([9]; postemergence) | Lambsquarters plant response rating [9, 13] | Plant response rating, Lambsquarters [9, 14] | Plant response rating, Lambsquarters [9, 15] | Plant response rating (0 to 100), Pigweed ([10]; postemergence) | also measured
1 | Clc1cnc(Oc2ccccc2-n2cc(Br)nn2)nc1 [Compound 223] | 50 | 90 | 35 | 0 | 0 | 5 | 0 | 75 | 80 | 100 | 80 | 5 | 5 | 5 | 5 | 60 | 75 | 95 | 75 | 70 | Plant response rating, Barnyardgrass [1, 12]: 100; Plant response rating, Corn [2, 12]: 60; Pigweed plant response rating [10, 13]: 70; Plant response rating, Pigweed [10, 14]: 90; Plant response rating, Pigweed [10, 15]: 80; Plant response rating (0 to 100), Waterhemp ([11]; postemergence): 70; Waterhemp plant response rating [11, 13]: 60; Plant response rating, Waterhemp [11, 14]: 95; Plant response rating, Waterhemp [11, 15]: 85
2 | Fc1cnc(Oc2ccccc2-n2cc(C(F)F)cn2)nc1 [Compound 228] | 0 | 75 | 0 | 0 | 0 | 10 | 0 | 50 | 50 | 80 | 70 | 0 | 0 | 5 | 0 | 25 | 40 | 65 | 75 | 25 | Barnyardgrass plant response rating [1, 16]: 10; Plant response rating, Barnyardgrass [1, 17]: 90; Corn plant response rating [2, 16]: 50; Plant response rating, Corn [2, 17]: 10; Pigweed plant response rating [10, 13]: 50; Plant response rating, Pigweed [10, 14]: 55; Plant response rating, Pigweed [10, 15]: 60; Plant response rating (0 to 100), Waterhemp ([11]; postemergence): 15; Waterhemp plant response rating [11, 13]: 45; Plant response rating, Waterhemp [11, 14]: 75; Plant response rating, Waterhemp [11, 15]: 60
3 | FC(F)c1cnn(-c2c(Br)cccc2Oc2ncc(Cl)cn2)c1 [Compound 232] | 35 | 95 | 10 | 0 | 0 | 10 | 5 | 65 | 70 | 95 | 80 | 5 | 10 | 15 | 10 | 55 | 60 | 75 | 70 | 60 | Barnyardgrass plant response rating [1, 16]: 30; Plant response rating, Barnyardgrass [1, 17]: 90; Corn plant response rating [2, 16]: 30; Plant response rating, Corn [2, 17]: 90; Pigweed plant response rating [10, 13]: 70; Plant response rating, Pigweed [10, 14]: 85; Plant response rating, Pigweed [10, 15]: 60; Plant response rating (0 to 100), Waterhemp ([11]; postemergence): 65; Waterhemp plant response rating [11, 13]: 65; Plant response rating, Waterhemp [11, 14]: 85; Plant response rating, Waterhemp [11, 15]: 70
